Assay results: ChEMBL document CHEMBL4052601, “Glycybridins A-K, Bioactive Phenolic Compounds from Glycyrrhiza glabra” (J Nat Prod, 2017)

Tests used:
[1] = molecular target: T1, Tyrosinase (Homo sapiens) (UniProt P14679); conditions: at 10 µM
T1 sequence (whole entry): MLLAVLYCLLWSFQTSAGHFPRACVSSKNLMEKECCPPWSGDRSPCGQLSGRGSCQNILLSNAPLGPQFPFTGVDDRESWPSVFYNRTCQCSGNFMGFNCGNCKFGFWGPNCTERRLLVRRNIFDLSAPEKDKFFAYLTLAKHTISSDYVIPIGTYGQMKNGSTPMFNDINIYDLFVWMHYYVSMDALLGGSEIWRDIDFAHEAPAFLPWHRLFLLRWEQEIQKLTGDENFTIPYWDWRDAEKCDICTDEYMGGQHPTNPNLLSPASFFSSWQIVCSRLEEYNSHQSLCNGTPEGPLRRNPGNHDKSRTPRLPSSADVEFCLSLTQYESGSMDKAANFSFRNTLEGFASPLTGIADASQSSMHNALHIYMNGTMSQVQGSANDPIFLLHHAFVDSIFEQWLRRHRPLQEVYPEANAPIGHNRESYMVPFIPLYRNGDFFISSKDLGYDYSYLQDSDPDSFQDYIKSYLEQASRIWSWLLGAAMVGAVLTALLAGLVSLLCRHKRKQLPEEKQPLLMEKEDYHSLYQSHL
Description: Inhibition of tyrosinase (unknown origin) using L-tyrosine as substrate at 10 uM preincubated for 15 mins followed by substrate addition relative to control

A549 = experiment: Antiproliferative activity against human A549 cells at 10 uM after 24 hrs by MTS assay relative to control; type: functional; conditions: A549, 24 h
[2] = molecular target: T2, Tyrosine-protein phosphatase non-receptor type 1 (Homo sapiens) (UniProt P18031); experiment: (§1) Inhibition of recombinant human PTP1B using pNPP as substrate after 30 mins
T2 sequence (whole entry): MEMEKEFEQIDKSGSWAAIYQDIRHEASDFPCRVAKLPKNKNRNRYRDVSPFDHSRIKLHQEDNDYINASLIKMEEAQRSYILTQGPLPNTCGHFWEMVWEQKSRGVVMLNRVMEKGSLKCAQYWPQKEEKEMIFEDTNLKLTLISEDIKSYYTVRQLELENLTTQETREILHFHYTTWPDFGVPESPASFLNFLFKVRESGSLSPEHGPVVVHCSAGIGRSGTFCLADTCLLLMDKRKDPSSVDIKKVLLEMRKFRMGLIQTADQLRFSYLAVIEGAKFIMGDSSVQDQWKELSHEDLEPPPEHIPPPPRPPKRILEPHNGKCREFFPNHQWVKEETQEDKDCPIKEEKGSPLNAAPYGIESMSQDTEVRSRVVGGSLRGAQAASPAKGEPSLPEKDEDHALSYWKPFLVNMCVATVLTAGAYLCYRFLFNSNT

[3] = molecular target: T3, Tyrosine-protein phosphatase non-receptor type 1 (Homo sapiens, UniProt P18031); experiment: as §1
T3 sequence (P18031 whole entry): T2 sequence (whole entry)

MCF7 = experiment: Antiproliferative activity against human MCF7 cells at 10 uM after 24 hrs by MTS assay relative to control; type: functional; conditions: MCF7, 24 h
[4] = molecular target: T2, Tyrosine-protein phosphatase non-receptor type 1 (Homo sapiens); conditions: at 10 µM
Description: Inhibition of recombinant human PTP1B using pNPP as substrate at 10 uM after 30 mins relative to control

HepG2 = experiment: Antiproliferative activity against human HepG2 cells at 10 uM after 24 hrs by MTS assay relative to control; type: functional; conditions: HepG2, 24 h
RAW264.7 [5] = experiment: Antiinflammatory activity against mouse RAW264.7 cells assessed as inhibition of LPS-induced nitric oxide production at 10 uM after 24 hrs by Griess assay relative to control; type: functional; conditions: RAW264.7, 24 h
SW480 = experiment: Antiproliferative activity against human SW480 cells at 10 uM after 24 hrs by MTS assay relative to control; type: functional; conditions: SW480, 24 h
Homo sapiens = experiment: Inhibition of LPS-induced NF-kappaB (unknown origin) transactivation expressed in human SW480 cells at 10 uM administered 1 hr after LPS stimulation measured after 6 hrs by luciferase reporter gene assay relative to control; type: cell-based
Tyrosinase [6] = molecular target: T4, Tyrosinase (Homo sapiens, UniProt P14679); experiment: Inhibition of tyrosinase (unknown origin) using L-tyrosine as substrate preincubated for 15 mins followed by substrate addition
T4 sequence (P14679 whole entry): T1 sequence (whole entry)

[7] = Inhibition of LPS-induced NF-kappaB (unknown origin) transactivation expressed in human SW480 cells administered 1 hr after LPS stimulation measured after 6 hrs by luciferase reporter gene assay; type: cell-based
RAW264.7 [8] = experiment: Antiinflammatory activity against mouse RAW264.7 cells assessed as inhibition of LPS-induced nitric oxide production after 24 hrs by Griess assay; type: functional, cell-based; conditions: RAW264.7, 24 h
Tyrosinase [9] = molecular target: T4, Tyrosinase; experiment: Inhibition of tyrosinase (unknown origin) using L-tyrosine as substrate preincubated for 5 mins followed by substrate addition

Row | SMILES | inhibition [1] [%] | inhibition at 10 µM (A549) [%] | inhibition [2] | IC50 [3] [µM] | inhibition at 10 µM (MCF7) [%] | inhibition [4] [%] | inhibition at 10 µM (HepG2) [%] | inhibition at 10 µM (RAW264.7 [5]) [%] | inhibition at 10 µM (SW480) [%] | inhibition (Homo sapiens) [%] | IC50 (Tyrosinase [6]) [µM] | IC50 [7] [µM] | IC50 (RAW264.7 [8]) [µM] | IC50 (Tyrosinase [9]) [µM]
1 | CC(C)=CCc1cc([C@@H]2CC(=O)c3ccc(O)c(CC=C(C)C)c3O2)ccc1O [GLABROL] | 2.3 | 3.2 | Dose-dependent effect | 5 to 7.9 | 48 | 65.1 | 51.3 | 14.7 | 13.6 | 28.2 | – | – | – | –
2 | COc1ccc(C2COc3c(ccc(O)c3CC=C(C)C)C2=O)c(O)c1 (stereo not given) | 68.3 | 9.4 | – | – | 8.7 | 9.9 | 50.3 | 18.1 | 27.8 | 0 | 5.1 | – | – | –
3 | CC1(C)C=Cc2c(ccc(-c3cc4ccc(O)cc4o3)c2O)O1 | 41.7 | 14.4 | – | – | 15.1 | 22.8 | 15.6 | 21.6 | 27.7 | 75.8 | – | 6.4 | – | –
4 | CC(C)=CCc1cc(/C=C/C(=O)c2ccc(O)cc2O)ccc1O [LICOAGROCHALCONE A] | 22.6 | 6.4 | – | – | 35.4 | 17.2 | 33.9 | 31.6 | 18.3 | 69 | – | 6.2 | – | –
5 | CC(C)=CCc1cc(/C=C/C(=O)c2ccc(O)c(CC=C(C)C)c2O)ccc1O [KANZONOL C] | 0 | 58 | Dose-dependent effect | 5 to 7.9 | 55.8 | 75.8 | 31.7 | 12.8 | 35.6 | 0 | – | – | – | –
6 | CC(C)=CCc1cc([C@@H]2CC(=O)c3ccc4c(c3O2)C=CC(C)(C)O4)ccc1O [SHINFLAVANONE] | 3.2 | 5.1 | Dose-dependent effect | 5 to 7.9 | 36.5 | 62.6 | 16.9 | 11.3 | 25 | 15.5 | – | – | – | –
7 | CC(C)=CCc1c(O)ccc2c1O[C@H](c1ccc3c(c1)C=CC(C)(C)O3)CC2=O | 3.1 | 0 | Dose-dependent effect | 5 to 7.9 | 71.2 | 71 | 76.5 | 0 | 34.8 | 44.7 | – | – | – | –
8 | CC(C)=CCc1c(O)ccc([C@@H]2COc3c(ccc4c3C=CC(C)(C)O4)C2)c1O [HISPAGLABRIDIN A] | 0 | 47.6 | Dose-dependent effect | 5 to 7.9 | 21.9 | 80.3 | 26.7 | 4 | 34.9 | 13.3 | – | – | – | –
9 | CC1(C)C=Cc2c(O)ccc(C3=Cc4ccc(O)cc4OC3)c2O1 [GLABRENE] | 76.6 | 0 | – | – | 17.6 | 7.1 | 25.9 | 57.5 | 30.7 | 41.7 | 7.5 | – | 9.5 | –
10 | O=C1C[C@@H](c2ccc(O)cc2)Oc2cc(O)cc(O)c21 [NARINGENIN] | 2.2 | 0.3 | – | – | 16.8 | 4.1 | 34.5 | 0 | 0 | 0 | – | – | – | –
11 | CC1(C)C=Cc2c(ccc3c2OCc2c-3oc3cc(O)ccc23)O1 | 26.3 | 0 | – | – | 33.7 | 18.1 | 0 | 7.4 | 1.1 | 1.4 | – | – | – | –
12 | O=C(/C=C/c1ccc(O)cc1)c1ccc(O)cc1O [ISOLIQUIRITIGENIN] | 15.3 | 8.3 | – | – | 65.6 | 14.2 | 6.5 | 21 | 29.1 | 17.1 | – | – | – | –
13 | CC1(C)C=Cc2c(ccc3c2OC[C@@H](c2ccc(O)cc2O)C3)O1 [GLABRIDIN] | 99.7 | 12.7 | – | – | 8.8 | 3.6 | 12.1 | 19.8 | 19.8 | 0 | – | – | – | 0.09
14 | COc1ccc([C@@H]2COc3c(ccc(O)c3CC=C(C)C)C2)c(O)c1O | 20.1 | 15.5 | – | – | 30.4 | 80 | 38 | 33 | 0.2 | 8.4 | – | – | – | –
15 | CC1(C)C=Cc2cc3cc(-c4ccc(O)cc4O)c(=O)oc3cc2O1 | 84 | 0 | – | – | 24.5 | 56.9 | 14.4 | 21.2 | 18.1 | 0 | 2.8 | – | – | –
16 | CC1(C)C=Cc2c(ccc3c2OCC(c2ccc(O)cc2O)=C3)O1 | 50.9 | 2.1 | – | – | 1.9 | 6.1 | 0 | 21.4 | 0 | 13.7 | – | – | – | –
17 | CC(C)=CCc1cc(/C=C/C(=O)c2ccc3c(c2O)C=CC(C)(C)O3)ccc1O | 0 | 2 | Dose-dependent effect | 5 to 7.9 | 15.6 | 84.5 | 10.6 | 7.2 | 4.9 | 3.4 | – | – | – | –
18 | CC1(C)C=Cc2cc(/C=C/C(=O)c3ccc(O)cc3O)ccc2O1 | 4.4 | 2.6 | – | – | 45.7 | 56.5 | 11.1 | 0 | 7.9 | 60.7 | – | 5.5 | – | –
19 | CC1(C)C=Cc2c(cc(O)c3c(=O)c(-c4ccc(O)cc4O)coc23)O1 | 28.7 | 4.3 | – | – | 12.7 | 57.6 | 12.7 | 5.6 | 29.6 | 0 | – | – | – | –
20 | CC(C)=CCc1c(O)cc(O)c2c(=O)c(-c3ccc(O)cc3O)coc12 | 49.6 | 4.2 | – | – | 7.4 | 18.2 | 0 | 10.3 | 4.2 | 0 | – | – | – | –
